Measured values from ChEMBL document CHEMBL5247632, “Current approaches and strategies to identify Hedgehog signaling pathway inhibitors for cancer therapy” (Eur J Med Chem, 2022).
Blank lines part the entries; values can stand above or below the molecule they belong to. Numbered stars: 1 amine (or outer) side, 2 acyl side, 3 side chain; on linkers, the order of the positions; unused ones are H or OH. Bridge positions count the residues as written; N and C are the ends. Peptide text beside a SMILES is read from it. CH2CH2 = C(C[*:2])[*:1]

Experiments:
Protein smoothened = Protein smoothened (Homo sapiens, UniProt Q99835, D473H); test: Antagonist activity at SMO D473H mutant (unknown origin) expressed in mouse TM3 cells coexpressing Gli-luc reporter gene assessed as inhibition of Hh-Ag1.5 induced Gli luciferase activity incubated for 48 hrs by luminescence assay; type: cell-based
[1] = Inhibition of hedgehog signalling in Shh-stimulated mouse NIH3T3 cells coexpressing firefly luciferase gene under control of Gli-promoter and renilla gene under control of constitutive promoter assessed as inhibition of Shh-N induced luciferase expression by dual luciferase reporter assay; type: cell-based
Sonic hedgehog protein = Sonic hedgehog protein (Homo sapiens, UniProt Q15465); test: Binding affinity to Shh (unknown origin) assessed as dissociation constant
[2] = Inhibition of hedgehog signalling pathway in mouse Shh Light II cells expressing Gli-luciferase reporter gene assessed as inhibition of SHHN-induced luciferase activity; type: cell-based
[3] = Inhibition of hedgehog signalling pathway in mouse NIH3T3 cells by Gli-Bla reporter assay; type: cell-based

Sonic hedgehog protein, sequence (Q15465 24-197 limits assumed): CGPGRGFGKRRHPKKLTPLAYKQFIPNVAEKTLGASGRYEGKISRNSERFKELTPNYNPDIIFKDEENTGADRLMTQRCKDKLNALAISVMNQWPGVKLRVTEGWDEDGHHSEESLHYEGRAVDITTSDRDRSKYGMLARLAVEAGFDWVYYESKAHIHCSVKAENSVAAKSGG
Protein smoothened, sequence (Q99835 28-787 D473H limits assumed): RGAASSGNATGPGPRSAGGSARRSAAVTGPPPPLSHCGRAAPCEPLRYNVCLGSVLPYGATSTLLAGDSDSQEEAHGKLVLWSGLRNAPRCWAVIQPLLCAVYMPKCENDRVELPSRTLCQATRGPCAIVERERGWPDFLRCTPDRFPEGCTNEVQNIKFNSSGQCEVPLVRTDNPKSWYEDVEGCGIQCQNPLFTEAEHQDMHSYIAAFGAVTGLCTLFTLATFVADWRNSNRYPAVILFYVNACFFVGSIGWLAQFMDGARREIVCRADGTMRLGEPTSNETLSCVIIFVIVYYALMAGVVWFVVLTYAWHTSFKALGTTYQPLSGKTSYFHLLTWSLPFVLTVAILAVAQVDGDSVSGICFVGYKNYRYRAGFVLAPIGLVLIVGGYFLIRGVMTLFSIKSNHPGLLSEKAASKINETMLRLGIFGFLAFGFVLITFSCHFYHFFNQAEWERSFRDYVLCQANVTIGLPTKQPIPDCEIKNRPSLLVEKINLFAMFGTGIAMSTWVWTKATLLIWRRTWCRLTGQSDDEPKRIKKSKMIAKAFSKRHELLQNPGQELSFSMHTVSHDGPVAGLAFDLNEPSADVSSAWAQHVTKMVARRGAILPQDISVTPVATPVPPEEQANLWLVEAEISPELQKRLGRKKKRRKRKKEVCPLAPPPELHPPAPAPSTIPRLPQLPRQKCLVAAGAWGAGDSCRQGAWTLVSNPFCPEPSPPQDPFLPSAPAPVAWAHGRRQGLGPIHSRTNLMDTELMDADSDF

- IC50 (Protein smoothened): 50 nM
Structure (SMILES): CC1C(=O)N(c2ccc(Cl)cc2)C(=O)N1Cc1ccccc1 (stereo not given)

- IC50 [1]: 250 nM
- Kd (Sonic hedgehog protein): 170 nM
Structure (SMILES): CSCC[C@@H]1NC(=O)[C@H](C)NC(=O)[C@H](CCC(=O)O)NC(=O)[C@@H](NC(=O)[C@H](Cc2c[nH]c3ccccc23)NC(=O)[C@H](CO)NC(=O)[C@H](CC(C)C)NC(=O)[C@@H](NC(C)=O)[C@@H](C)O)Cc2ccc(cc2)OCCSC[C@@H](C(=O)N[C@H](C(=O)N[C@@H](CC(=O)O)C(=O)O)[C@@H](C)O)NC(=O)[C@H](CCSC)NC(=O)[C@H](CC(=O)O)NC1=O (Ac-TLSWYEAMDMCTD-OH; linker 5-11 via CH2CH2)

- IC50 [2]: 500 nM
Structure (SMILES): CCC(C)n1ncn(-c2ccc(N3CCN(c4ccc(OCC5COC(Cn6cncn6)(c6ccc(Cl)cc6Cl)O5)cc4)CC3)cc2)c1=O (stereo not given) [ITRACONAZOLE]

- IC50 [3]: 7 nM
Structure (SMILES): CS(=O)(=O)c1ccc(C(=O)Nc2ccc(Cl)c(-c3ccccn3)c2)c(Cl)c1 [VISMODEGIB]
